Measured values taken from patent publication US20220348549A1 (Hoffmann-La Roche Inc., priority 2019, published 2022).

Tested on: HBV cccDNA (HBeAg level in HepDES19 cells)
Experiment: Engineered HepDES19 primary screen assay (HBeAg ELISA as surrogate marker for cccDNA)
Format: cell-based
Conditions: Hepatitis B virus, HepDES19, 120 h
Description: The assay was employed to screen for novel HBV cccDNA inhibitors. HepDES19 is a HBV cccDNA-producing cell line. In this cell line, HBeAg in the cell culture supernatant as surrogate marker, as HBeAg production depends on cccDNA level and activity. HepDES19 is an engineered cell line which contains a 1.1 unit length HBV genome, and pgRNA transcription from the transgene is controlled by Tetracycline (Tet). In the absence of Tet, pgRNA transcription will be induced, but HBV e antigen (HBeAg) could not be produced from this pgRNA due to very short leader sequence before the HBeAg start codon and the start codon is disrupted. Only after cccDNA is formed, the missing leader sequence and start codon mutation would be restored from the 3′-terminal redundancy of pgRNA, and then HBeAg could be synthesized. Therefore, HBeAg could be used as a surrogate marker for cccDNA (Zhou, T. et al., Antiviral Res. (2006), 72(2), 116-124; Guo, H. et al., J. Virol. (2007), 81(22), 12472-12484).
HepDES19 cells were seeded at 2×10^6 cells per T150 flask and cultured with the culture medium (Dulbecco's Modified Eagle Medium: Nutrient Mixture F-12 [DMEM-F12, Gibco Cat. 11320-82], 10% Fetal Bovine Serum [FBS, Clontech Cat. 631101], 0.1 mM Non-Essential Amino Acids Solution [NEAA, Gibco Cat. 11140-050], 50 μg/mL Penicillin-Streptomycin [PS, Invitrogen Cat. 15140-163], 500 μg/mL Geneticin [G418, Invitrogen Cat. 10131-027]) containing 3 μg/mL Tet (Sigma, Cat. 87128) for 5 days. Cells were then seeded at 4×10^6 cells per T150 in the same culture medium as described above in the absence of Tet for 8 days. Cells were then harvested and frozen at density of 2×10^6 cells per mL. For compound testing, the frozen cells were thawed and seeded into 96-well plates at a density of 6×10^4 cells per well. At 24 hrs after seeding, half log serial dilutions of compounds made with Dimethyl sulfoxide (DMSO, Sigma, Cat. D2650) were further diluted with the same culture medium as described above before they were added to the cells to reach desired final compound concentrations and 1% DMSO concentration. Plates were then incubated at 37° C. for another 5 days before measurement of HBeAg level and cell viability. Intracellular HBeAg level were measured with enzyme-linked immunosorbent assay (ELISA) kit (Shanghai Kehua Diagnostic Medical Products Co., Ltd). Cell viability was assessed using Cell Counting Kit-8 (Donjindo, Cat. CK04-20). IC50 values were derived from the dose-response curve using 4 parameter logistic curve fit method.
The compounds of the present invention were tested for their capacity to inhibit extracellular HBeAg level as described herein.

Row | Compound | IC50 [µM]
1 | O=C(NCCCl)c1nc(-c2ccc(Br)cc2)nc2c(Cl)cccc12 [Example 39, 2-(4-Bromophenyl)-8-chloro-N-(2-chloroethyl)quinazoline-4-carboxamide] | 1.17
2 | Cc1nc(-c2ccc(Br)cc2)nc2c(Cl)cccc12 [Example 40, 2-(4-Bromophenyl)-8-chloro-4-methyl-quinazoline] | 0.082
3 | O=C(O)[C@H]1C[C@@H](OCCOc2ccc(-c3ncc4cccc(Cl)c4n3)cc2)C1 [Example 42, cis-3-[2-[4-(8-Chloroquinazolin-2-yl)phenoxy]ethoxy]cyclobutanecarboxylic acid] | 16.9
4 | O=C(O)c1nc(-c2ccc(Br)cc2)nc2cc(C(F)(F)F)ccc12 [Example 43, 2-(4-Bromophenyl)-7-(trifluoromethyl)quinazoline-4-carboxylic acid] | 12.9
5 | O=C(c1nc(-c2ccc(Br)cc2)nc2cc(C(F)(F)F)ccc12)N1CCOCC1 [Example 44, [2-(4-Bromophenyl)-7-(trifluoromethyl)quinazolin-4-yl]-morpholino-methanone] | 8.7
6 | O=C(O)c1nc(-c2ccc(Cl)nc2)nc2c(Cl)cccc12 [Example 45, 8-Chloro-2-(6-chloro-3-pyridyl)quinazoline-4-carboxylic acid] | 0.66
7 | NC(=O)c1nc(-c2ccc(Cl)nc2)nc2c(Cl)cccc12 [Example 46, 8-chloro-2-(6-chloro-3-pyridyl)quinazoline-4-carboxamide] | 0.11
8 | CCOc1ccc(-c2nc(C(=O)O)c3cccc(Cl)c3n2)cn1 [Example 48, 8-Chloro-2-(6-ethoxy-3-pyridyl)quinazoline-4-carboxylic acid] | 7.57
9 | O=C(O)c1nc(-c2ccc(N3CCCC3)nc2)nc2c(Cl)cccc12 [Example 49, 8-Chloro-2-(6-pyrrolidin-1-yl-3-pyridyl)quinazoline-4-carboxylic acid] | 11
10 | O=C(O)c1nc(-c2ccc(OCCO[C@H]3C[C@@H](C(=O)O)C3)nc2)nc2c(Cl)cccc12 [Example 50, cis-2-[6-[2-(3-Carboxycyclobutoxy)ethoxy]-3-pyridyl]-8-chloro-quinazoline-4-carboxylic acid] | 15
11 | O=C(O)COCCOc1ccc(-c2ncc3cccc(Cl)c3n2)cn1 [Example 51, 2-[2-[[5-(8-Chloroquinazolin-2-yl)-2-pyridyl]oxy]ethoxy]acetic acid] | 4.86
12 | O=C(NCCO)c1nc(-c2ccc(Cl)nc2)nc2c(Cl)cccc12 [Example 52, 8-Chloro-2-(6-chloro-3-pyridyl)-N-(2-hydroxyethyl)quinazoline-4-carboxamide] | 0.16
13 | O=C(c1nc(-c2ccc(Cl)nc2)nc2c(Cl)cccc12)N1CCOCC1 [Example 53, [8-Chloro-2-(6-chloro-3-pyridyl)quinazolin-4-yl]-morpholino-methanone] | 0.083
14 | O=C(O)[C@H]1C[C@@H](OCCOc2ccc(-c3nc(O)c4cccc(Cl)c4n3)cn2)C1 [Example 54, cis-3-[2-[[5-(8-Chloro-4-hydroxy-quinazolin-2-yl)-2-pyridyl]oxy]ethoxy]cyclobutanecarboxylic acid] | 3.42
15 | COc1nc(-c2ccc(OCCOC3CC(C(=O)O)C3)cc2)nc2c(Cl)cccc12 (stereo not shown) [Example 55, 3-(2-(4-(8-Chloro-4-methoxyquinazolin-2-yl)phenoxy)ethoxy)cyclobutanecarboxylic acid] | 0.026
16 | O=C(O)C1CC(OCCOc2ccc(-c3nc(C(F)(F)F)c4cccc(Cl)c4n3)cc2)C1 (stereo not shown) [Example 56, 3-[2-[4-[8-chloro-4-(trifluoromethyl)quinazolin-2-yl]phenoxy]ethoxy]cyclobutanecarboxylic acid] | 7.86
